Measured values taken from US20240300943A1, “NOVEL SALTS OF HETEROCYCLIC COMPOUND AS PROTEIN KINASE INHIBITOR AND USES THEREOF” (HK INNO.N CORPORATION, priority 2021, published 2024).

Experiments:
JAK1 = JAK1 (Homo sapiens, UniProt P23458); assay: ADP-Glo JAK1 kinase assay; type: biochemical
Method: 10 mM of (S)—N-(4-(1-(2-cyanoacetyl)-3-methyl-1,2,3,6-tetrahydropyridin-4-yl)-1H-pyrrolo[2,3-b]pyridin-6-yl)cyclopropanecarboxamide (hereinafter, referred to as Compound 1), which is the heterocyclic compound represented by formula II obtained according to Preparation Example 1, was diluted in DMSO to prepare samples at five concentrations (1,000 nM, 200 nM, 40 nM, 8 nM, and […]). 10 mM of ATP and 10 mg/mL of insulin receptor substrate (IRS) were diluted at 1/40 and 1/50, respectively, in 1× kinase buffer. In addition, 222 ng/μL of JAK1 enzyme was diluted at ⅛ in 1× kinase buffer to make a preparation. 1 μL of ATP, 1 μL of IRS, and 1 μL of Compound 1 prepared as above were mixed, after which 2 μL of JAK1 enzyme was finally added and reacted at 30° C. for 40 minutes. At this time, a tube without JAK1 enzyme was prepared for a blank and a tube without Compound 1 was prepared as a positive control group together (a final concentration of samples was 200 nM, 40 nM, 8 nM, 1.6 nM, and 0.32 nM).
Then, 5 μL of ADP-glo was added to each tube and reacted at 30° C. for 40 minutes, after which 10 μL of kinase detection reagent was added thereto and reacted at room temperature for 15 minutes. After 18 μL of the reactant was transferred to a 384 well plate, luminescence was measured using a plate reader.

JAK1, Tyk2 = assay: In vitro cell assay, JAK1, Tyk2 (U2OS cells, IFN-alphaB2); type: cell-based; conditions: Homo sapiens, read-out: IC50, Cell Biology JAK1, Tyk2
Method: Furthermore, there is a literature in which U20S cells are associated with JAK1/TYK2 signaling activity and phosphorylation of STAT1 by IFN-alphaB2 and IFN-γ. Accordingly, U2OS cells were prepared for the evaluation of JAK1 and TYK2 as a cell line which strongly expresses STAT1 signals.
The test material was dissolved in DMSO, prepared at 10 mM, divided by 20 μL each, and stored at −20° C.
• EPO: 2000 U/0.5 mL of stock was divided by 50 μL each and stored under refrigeration. • IL-2: 200 μg/ml of stock was prepared, divided by 5 μL each, and stored, and then treated at 2 ng/ml. (IL-2 1 μg/ml=13000 U/ml) • IFN-alphaB2: […] of stock was diluted and used, and then treated to reach 30000 U/ml.
• UT-7/EPO cell assay: MEM-alpha (Gibco, cat #12561-056) was prepared to contain 5% FBS and 1% P/S before use. • NK-92 cell assay: A preparation was made to contain HBSS, 1% FBS and 1% P/S before use. • U2OS cell assay: A preparation was made to contain HBSS, 1% FBS and 1% P/S before use.
The cultured cells were centrifuged (1,000 rpm, 5 minutes) and washed with PBS. The size of cell lines and appropriate reaction concentration thereof were set and the cell lines were seeded in a 96-well plate at 1×10^5 to 10^6 cells/well (50 μL/well). The test material was prepared 4× of the concentration to be treated, and prepared at five to six concentrations by serial dilution of ⅕ each. […]

[1] = tested on: DNCB-induced animal model (NC/Nga mice); assay: DNCB-induced atopic dermatitis model (topical); type: in vivo; conditions: for Reduction of scratching behavior compared to the control group (vehicle): week 4, FIG. 12
Method: NC/Nga mice were anesthetized with isoflurane and the dorsal hair (from the bottom of the ear to the top of the tail) was then removed. The NC/Nga mice were left for 24 hours for recovery of fine wounds on the shaved skin.
After healing, 200 μL of 1%1-chloro-2,4-dinitrobenzene (DNCB) in acetone/olive oil (3:1) was topically applied to the dorsal skin (primary skin application). Secondary skin application was performed after three days for sensitization.
Seven days after the primary skin application, 150 μL of 0.4% DNCB in acetone/olive oil (3:1) was topically applied, and applied to the dorsal skin three times a week for five weeks.
The phosphate of Compound 1 (hereinafter, referred to as a phosphate compound) obtained according to Example 3 was used as a test material, and the test material was treated before applying DNCB from two weeks after the primary skin application. The dosage of the test material was calculated based on a body weight of mice measured on the day of administration, and the test material was topically applied to atopic skin using a glass stick (a total of 56 times twice a day for 28 days, six hours at a treatment interval). 0.5% methylcellulose (0.5% MC) was administered to the control group (vehicle).
Week 6 after the primary skin application, the test animals were autopsied. Specifically, the test animals were anesthetized using isoflurane, and as much blood as possible was drawn from the caudal vena cava with a syringe and stored in a 5 mL vacuum tube containing a blood clot activator. The blood was allowed to stand at room temperature for 15-20 minutes for coagulation and then centrifuged at 3000 rpm for 10 minutes.
Atopic dermatitis scores were rated as none (0), mild (1), moderate (2), and severe (3) for each of the five symptoms (erythema, dryness, skin edema and hematoma, erosion, and keratinization). The total dermatitis score representing clinical severity was defined as the sum of all scores (maximum score: 15). The evaluation was conducted twice a week by the same researcher at the same time.
To evaluate a scratching behavior at week 4, mice were placed in cages and the frequency of scratching was evaluated for 30 minutes.
Quantitative analysis was performed using a serum IgE and histamine with ELISA kit.
After measuring a weight of the spleen and mouse, a spleen-to-body weight ratio (relative organ weight) was calculated.
TARC, TSLP, IL-4, IL-1B and TNF-α were quantified using skin tissue through qRT-PCR.
On the day of autopsy, the skin in 10% neutral buffered formalin solution was analyzed by staining with H & E and toluidine blue.

Chain of JAK1 (P23458 whole entry, species assumed): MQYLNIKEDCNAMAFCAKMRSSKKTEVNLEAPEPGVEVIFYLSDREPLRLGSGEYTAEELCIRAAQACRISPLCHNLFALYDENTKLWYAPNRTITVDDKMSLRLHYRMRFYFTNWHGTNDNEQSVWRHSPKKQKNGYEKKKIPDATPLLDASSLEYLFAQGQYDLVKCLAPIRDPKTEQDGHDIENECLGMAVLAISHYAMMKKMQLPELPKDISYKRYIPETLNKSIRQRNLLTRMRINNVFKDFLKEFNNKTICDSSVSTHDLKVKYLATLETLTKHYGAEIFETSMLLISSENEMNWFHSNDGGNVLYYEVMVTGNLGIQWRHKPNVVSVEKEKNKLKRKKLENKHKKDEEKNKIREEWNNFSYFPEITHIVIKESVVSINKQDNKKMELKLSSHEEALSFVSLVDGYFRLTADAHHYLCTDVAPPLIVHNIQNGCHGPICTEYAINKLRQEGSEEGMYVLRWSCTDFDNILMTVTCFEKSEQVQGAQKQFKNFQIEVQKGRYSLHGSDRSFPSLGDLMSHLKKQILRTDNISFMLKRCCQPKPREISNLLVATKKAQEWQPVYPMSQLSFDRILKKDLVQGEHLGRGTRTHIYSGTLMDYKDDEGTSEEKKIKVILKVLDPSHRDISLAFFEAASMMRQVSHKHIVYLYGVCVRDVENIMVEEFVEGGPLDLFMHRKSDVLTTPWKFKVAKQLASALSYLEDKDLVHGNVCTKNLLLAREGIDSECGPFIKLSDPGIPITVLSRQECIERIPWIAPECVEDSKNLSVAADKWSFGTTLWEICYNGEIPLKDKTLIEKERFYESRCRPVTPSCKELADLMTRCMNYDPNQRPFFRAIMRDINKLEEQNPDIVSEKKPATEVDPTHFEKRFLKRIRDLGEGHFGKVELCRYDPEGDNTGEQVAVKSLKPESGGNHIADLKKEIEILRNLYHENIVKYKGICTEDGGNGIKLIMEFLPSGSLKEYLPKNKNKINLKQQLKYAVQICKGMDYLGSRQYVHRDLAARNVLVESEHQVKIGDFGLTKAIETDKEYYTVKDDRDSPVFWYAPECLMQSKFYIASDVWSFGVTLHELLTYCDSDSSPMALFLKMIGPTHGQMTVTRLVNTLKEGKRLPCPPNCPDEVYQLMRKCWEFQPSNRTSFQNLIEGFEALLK

Structure (SMILES)	IC50 (JAK1; ADP-Glo kinase assay, read-out: IC50, In vitro enzyme JAK1) [nM]	JAK1 inhibitory activity (JAK1; summary of Experimental Examples 1 to 3)	IC50 (JAK1, Tyk2) [nM]	Reduction of scratching behavior compared to the control group (vehicle) ([1]; 3% phosphate compound)	Skin severity score (clinical atopic dermatitis score) ([1]; FIG. 11)	Spleen-to-body weight ratio ([1]; FIG. 15)	Histological properties of atopic dermatitis (skin staining) ([1]; FIG. 16)	Atopic dermatitis-related cytokines of plasma and skin ([1]; FIGS. 13 and 14)	Reduction of scratching behavior compared to the control group (vehicle) ([1]; dosed groups)	Symptoms of atopic dermatitis ([1]; twice a day for 28 days, FIGS. 11 to 16)
C[C@@H]1CN(C(=O)CC#N)CC=C1c1cc(NC(=O)C2CC2)nc2[nH]ccc12 [Compound 1, (S)—N-(4-(1-(2-cyanoacetyl)-3-methyl-1,2,3,6-tetrahydropyridin-4-yl)-1H-pyrrolo[2,3-b]pyridin-6-yl)cyclopropanecarboxamide]	3.8	very excellent JAK1 inhibitory activity	27	–	–	–	–	–	–	–
C[C@@H]1CN(C(=O)CC#N)CC=C1c1cc(NC(=O)C2CC2)nc2[nH]ccc12 [Example 3, (S)—N-(4-(1-(2-cyanoacetyl)-3-methyl-1,2,3,6-tetrahydropyridin-4-yl)-1H-pyrrolo[2,3-b]pyridin-6-yl)cyclopropanecarboxamide]	–	–	–	at least 50%	significantly reduced	decreased	changes the histological properties of atopic dermatitis	reduced	at least 30%	ameliorates symptoms of atopic dermatitis
